Reference: ChEMBL document CHEMBL1201862, “PubChem BioAssay data set” (2004)
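Five concentrations, 48 hours, 96-well plates. GI50 marks 50% less growth.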 Calls of active or inactive are those of the source. No stated cut-off is given here; in the data, active = GI50 up to about 1.1 µM and inactive = higher.

Experiments:
Test in all cases: growth of human tumour cells (NCI), 48 h
[1] = tested on: DU-145
[2] = tested on: EKVX
[3] = tested on: HCC 2998
[4] = tested on: HCT-15
[5] = tested on: HOP-62
[6] = tested on: HOP-92
[7] = tested on: KM12
[8] = tested on: MDA-N
[9] = tested on: MOLT-4
[10] = tested on: NCI-H226
[11] = tested on: NCI-H460
[12] = tested on: RXF 393
[13] = tested on: SF-268
[14] = tested on: SF-295
[15] = tested on: SF-539
[16] = tested on: SN12C
[17] = tested on: SNB-75
[18] = tested on: TK-10
[19] = tested on: U-251
[20] = tested on: SW-620

Compound	GI50 [1]	GI50 [2]	GI50 [3]	GI50 [4]	GI50 [5]	GI50 [6]	GI50 [7]	GI50 [8]	GI50 [9]	GI50 [10]	GI50 [11]	GI50 [12]	GI50 [13]	GI50 [14]	GI50 [15]	GI50 [16]	GI50 [17]	GI50 [18]	GI50 [19]	GI50 [20]
CC(=O)NNC1=NN(C(C)=O)C2(S1)C(=O)Nc1ccc(C)cc12 (centres undefined)	> 100 µM (inactive)	78.9 µM (inactive)	47.1 µM (inactive)	50 µM	35.3 µM (inactive)	29 µM (inactive)	57.7 µM (inactive)	> 100 µM (inactive)	> 100 µM (inactive)	> 100 µM (inactive)	67 µM (inactive)	44.9 µM (inactive)	> 100 µM (inactive)	97.9 µM (inactive)	> 100 µM (inactive)	> 100 µM (inactive)	45.7 µM (inactive)	38.5 µM (inactive)	41.7 µM (inactive)	
CCOC(=O)C(=O)C(CCC(=O)c1ccc2ccccc2c1O)C(=O)OCC (centres undefined)	> 100 µM (inactive)	> 100 µM (inactive)	> 100 µM (inactive)	> 100 µM		> 100 µM (inactive)	> 100 µM (inactive)	> 100 µM (inactive)	> 100 µM (inactive)	38.5 µM (inactive)	> 100 µM (inactive)	> 100 µM (inactive)	> 100 µM (inactive)	> 100 µM (inactive)	> 100 µM (inactive)	> 100 µM (inactive)	> 100 µM (inactive)		> 100 µM (inactive)	> 100 µM (inactive)
O=C(NC12CC3CC(CC(C3)C1)C2)n1cnc2cncnc21	25.6 µM (inactive)	37.6 µM (inactive)	35.6 µM (inactive)	27.7 µM	18.2 µM (inactive)	28.2 µM (inactive)	30.8 µM (inactive)	33.5 µM (inactive)	33.3 µM (inactive)		32.3 µM (inactive)	26.5 µM (inactive)	53.5 µM (inactive)	21.6 µM (inactive)	25.1 µM (inactive)	36 µM (inactive)	44.5 µM (inactive)	30.2 µM (inactive)	35.3 µM (inactive)	39.8 µM (inactive)
COC1(OC)N=C(N)C2(C#N)C3(C(=O)N(C(C)C)N=C3C)C12C#N (centres undefined)	> 100 µM (inactive)	> 100 µM (inactive)	> 100 µM (inactive)	> 100 µM	> 100 µM (inactive)	> 100 µM (inactive)	> 100 µM (inactive)	> 100 µM (inactive)	> 100 µM (inactive)	> 100 µM (inactive)	> 100 µM (inactive)	> 100 µM (inactive)	> 100 µM (inactive)	> 100 µM (inactive)	> 100 µM (inactive)	> 100 µM (inactive)	> 100 µM (inactive)		> 100 µM (inactive)	> 100 µM (inactive)
COC(=O)CNC(=O)c1cc(C)cc2c1Oc1c(cc(C)cc1C(=O)NCC(=O)OC)S2	45.4 µM (inactive)	> 100 µM (inactive)	38.5 µM (inactive)	53.1 µM	> 100 µM (inactive)	22.3 µM (inactive)	81.7 µM (inactive)	> 100 µM (inactive)	62.2 µM (inactive)	> 100 µM (inactive)		29.6 µM (inactive)	99.8 µM (inactive)	56.9 µM (inactive)	21.3 µM (inactive)	57.8 µM (inactive)	> 100 µM (inactive)	> 100 µM (inactive)	> 100 µM (inactive)	> 100 µM (inactive)
